Data taken from PubChem BioAssay AID2060499 (Molecular Pharmacology Branch, DTP, NCI, 2025).
pIC50: −log10 of the molar value.

System: 777334-354-R2-J4-PDC tumor spheroids with HUVEC/MSC, viability
Assay: Anticancer human tumor 777334-354-R2-J4-PDC patient-derived pancreatic adenocarcinoma cell line growth inhibition [GQUAD]
Settings: for pIC50: curve of first compound; for viability, T/C: stronger effect = lower value
From the text: DNA G-quadruplex Stabilizer Agents in Combinations in Complex Spheroids
A high-throughput screen of multi-cell type tumor spheroids was designed to identify active combinations of DNA G-quadruplex stabilizer agents and targeted small molecules. Complex spheroids include a stromal component modeled by human endothelial cells (HUVEC) and fibroblasts modeled by human mesenchymal stem cells (MSCs). The concentration ranges selected for each drug and investigational agent were based upon clinically achievable concentrations if the clinical Cmax of the agent was known.
Compounds. The drugs and investigational agents: pidnarulex (CX-5461; NSC782164), APTO-253 (NSC789042), BRACO-19 (NSC847499), peposertib (NSC802822), ceralasertib (NSC780249), elimusertib (NSC800525), camonsertib (NSC841442), AZD-1390 (NSC803789), olaparib (NSC753686), talazoparib (NSC767125), ART-558 (NSC835418), sotorasib (NSC818433), MRTX-1133 (NSC836407), SN-38 (NSC673596), topotecan (NSC609699), etoposide (NSC141540), doxorubicin (NSC123127), gemcitabine (NSC613327), 5-fluorouracil (NSC19893), paclitaxel (NSC125973), vemurafenib (NSC761431), panobinostat (NSC761190), R-306465 (JNJ-16241199; NSC773264), adavosertib (NSC754352), TP-3654 (NSC805149), carboplatin (NSC241240), KSQ-4279 (NSC840948), and staurosporine (NSC755774) were obtained from the National Cancer Institute (NCI) Developmental Therapeutics Program Chemical Repository (34). The FDA-approved anticancer drug set is available from the NCI Developmental Therapeutics Program. […] The stock solutions were prepared in dimethyl sulfoxide (DMSO, Sigma-Aldrich, St. Louis, MO, cat. D2650) at 800-fold the tested concentration and stored at -70 degrees C prior to their use. All drugs and investigational agents were tested over a range starting from a high concentration at or near the clinical Cmax and decreasing in half-log increments. If the clinical Cmax for an agent had not been determined, the highest concentration tested was 10 microM.
2.3 Cell Culture. All cells were maintained in an incubator at 37 degrees C and 5% CO2 with 95% humidity. The PDC lines were cultured according to standard operating procedures established by the NCI PDMR. All PDCs were thawed and cultured in Matrigel-coated flasks prepared with a working solution of 1X Ham's F-12 nutrient mix, without supplementation (Invitrogen, cat. 11765054), 100 U/mL penicillin-streptomycin (Invitrogen, cat. 15140122), and 2.5% Matrigel (Corning Inc., cat. 354248) for the first three passages. The 857933-349-R-J2-PDC line was cultured in 6C/Colon 1B media, which includes advanced DMEM/F-12 (Thermo Fisher Scientific, cat. 12634028), 10 mM HEPES (Thermo Fisher Scientific, cat. 15630080), 1X GlutaMAX supplement (Thermo Fisher Scientific, cat. 35050061), 0.1 mg/mL primocin (InvivoGen, cat. ant-pm-2), 10% defined fetal bovine serum, heat inactivated (HyClone Laboratories Inc., cat. SH30070.03HI), 50% L-WRN conditioned media (ATCC, cat. CRL-3276), 1.25 mM N-Acetyl-L-cysteine (Sigma-Aldrich, cat. A9165), 10 mM nicotinamide (Sigma-Aldrich, cat. N0636), 1X B-27 supplement (Thermo Fisher Scientific, cat. 17504044), 1X N-2 supplement (Thermo Fisher Scientific, cat. 17502048), 10 microM Y-27632 dihydrochloride (Tocris Bioscience, cat. 1254), and 50 ng/mL human EGF recombinant protein (Thermo Fisher Scientific, cat. PHG0311). The 485176-168-R4-J1-PDC line was cultured in Panc media, which includes all 6C/Colon 1B media components plus 100 ng/mL human FGF-10 (Thermo Fisher Scientific, cat. 100-26), 500 nM SB-431542 (Selleckchem, cat. S1067), and gastrin (Tocris, cat. 3006).
[…]

[1] = second compound 0.0316 µM, first compound 0.0316 µM
[2] = second compound 0.0316 µM, first compound 0.316 µM
[3] = second compound 0.1 µM, first compound 0.0316 µM
[4] = second compound 0.1 µM, first compound 0.316 µM
[5] = second compound 0.316 µM, first compound 0.0316 µM
[6] = second compound 0.316 µM, first compound 0.316 µM
[7] = second compound 1 µM, first compound 0.0316 µM
[8] = second compound 1 µM, first compound 0.316 µM
[9] = second compound 3.16 µM, first compound 0.0316 µM
[10] = second compound 3.16 µM, first compound 0.316 µM
[11] = second compound 10 µM, first compound 0.0316 µM
[12] = second compound 10 µM, first compound 0.316 µM
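Also: spheroids exposed to compounds for 7 days before readout.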

## CCc1c2c(nc3ccc(O)cc13)-c1cc3c(c(=O)n1C2)COC(=O)[C@]3(O)CC + CN(C)c1ccc(Nc2c3ccc(NC(=O)CCN4CCCC4)cc3nc3cc(NC(=O)CCN4CCCC4)ccc23)cc1
Second compound 0.0316 µM
  pIC50: 8.28
Second compound 0.1 µM
  pIC50: 8.37
Second compound 0.316 µM
  pIC50: 8.28
Second compound 1 µM
  pIC50: 8.30
Second compound 3.16 µM
  pIC50: 8.50
Second compound 10 µM
  pIC50: 8.32
Second compound 0.0316 µM, first compound 0.000999 µM
  viability, T/C: 105%
Second compound 0.0316 µM, first compound 0.00316 µM
  viability, T/C: 57.8%
Second compound 0.0316 µM, first compound 0.00999 µM
  viability, T/C: 38.6%
[1]
  viability, T/C: 23.4%
Second compound 0.0316 µM, first compound 0.0999 µM
  viability, T/C: 15.9%
[2]
  viability, T/C: 9.58%
Second compound 0.1 µM, first compound 0.000999 µM
  viability, T/C: 85.1%
Second compound 0.1 µM, first compound 0.00316 µM
  viability, T/C: 51.9%
Second compound 0.1 µM, first compound 0.00999 µM
  viability, T/C: 39.6%
[3]
  viability, T/C: 22.4%
Second compound 0.1 µM, first compound 0.0999 µM
  viability, T/C: 14.7%
[4]
  viability, T/C: 11.4%
Second compound 0.316 µM, first compound 0.000999 µM
  viability, T/C: 79.6%
Second compound 0.316 µM, first compound 0.00316 µM
  viability, T/C: 61.9%
Second compound 0.316 µM, first compound 0.00999 µM
  viability, T/C: 34.6%
[5]
  viability, T/C: 21.4%
Second compound 0.316 µM, first compound 0.0999 µM
  viability, T/C: 15.3%
[6]
  viability, T/C: 9.02%
Second compound 1 µM, first compound 0.000999 µM
  viability, T/C: 84.3%
Second compound 1 µM, first compound 0.00316 µM
  viability, T/C: 57%
Second compound 1 µM, first compound 0.00999 µM
  viability, T/C: 38.8%
[7]
  viability, T/C: 23.9%
Second compound 1 µM, first compound 0.0999 µM
  viability, T/C: 13.8%
[8]
  viability, T/C: 8.31%
Second compound 3.16 µM, first compound 0.000999 µM
  viability, T/C: 74.9%
Second compound 3.16 µM, first compound 0.00316 µM
  viability, T/C: 49.3%
Second compound 3.16 µM, first compound 0.00999 µM
  viability, T/C: 31.9%
[9]
  viability, T/C: 24.7%
Second compound 3.16 µM, first compound 0.0999 µM
  viability, T/C: 15.9%
[10]
  viability, T/C: 9.07%
Second compound 10 µM, first compound 0.000999 µM
  viability, T/C: 79.5%
Second compound 10 µM, first compound 0.00316 µM
  viability, T/C: 57.9%
Second compound 10 µM, first compound 0.00999 µM
  viability, T/C: 35.8%
[11]
  viability, T/C: 26.8%
Second compound 10 µM, first compound 0.0999 µM
  viability, T/C: 19.6%
[12]
  viability, T/C: 9.4%

## Cc1cccc(N(C)C(=O)C2C(O)CCN2c2nc(C)cc(C(F)(F)F)c2C#N)c1 (centres undefined) + Cc1[nH]c2ccc(F)cc2c1-c1nc2c3cccnc3c3ncccc3c2[nH]1
Second compound 0.0316 µM
  pIC50: < 5.00
Second compound 0.1 µM
  pIC50: < 5.00
Second compound 0.316 µM
  pIC50: < 5.00
Second compound 1 µM
  pIC50: < 5.00
Second compound 3.16 µM
  pIC50: > 7.50
Second compound 10 µM
  pIC50: > 7.50
[1]
  viability, T/C: 112%
Second compound 0.0316 µM, first compound 0.1 µM
  viability, T/C: 104%
[2]
  viability, T/C: 95.3%
Second compound 0.0316 µM, first compound 1 µM
  viability, T/C: 95.5%
Second compound 0.0316 µM, first compound 3.16 µM
  viability, T/C: 94.5%
Second compound 0.0316 µM, first compound 10 µM
  viability, T/C: 92.9%
[3]
  viability, T/C: 97.6%
Second compound 0.1 µM, first compound 0.1 µM
  viability, T/C: 97%
[4]
  viability, T/C: 92.1%
Second compound 0.1 µM, first compound 1 µM
  viability, T/C: 93.4%
Second compound 0.1 µM, first compound 3.16 µM
  viability, T/C: 103%
Second compound 0.1 µM, first compound 10 µM
  viability, T/C: 101%
[5]
  viability, T/C: 95.3%
Second compound 0.316 µM, first compound 0.1 µM
  viability, T/C: 88.5%
[6]
  viability, T/C: 101%
Second compound 0.316 µM, first compound 1 µM
  viability, T/C: 95.8%
Second compound 0.316 µM, first compound 3.16 µM
  viability, T/C: 95.8%
Second compound 0.316 µM, first compound 10 µM
  viability, T/C: 91.2%
[7]
  viability, T/C: 78.8%
Second compound 1 µM, first compound 0.1 µM
  viability, T/C: 85.4%
[8]
  viability, T/C: 83.3%
Second compound 1 µM, first compound 1 µM
  viability, T/C: 71%
Second compound 1 µM, first compound 3.16 µM
  viability, T/C: 90.4%
Second compound 1 µM, first compound 10 µM
  viability, T/C: 87.2%
[9]
  viability, T/C: 35.1%
Second compound 3.16 µM, first compound 0.1 µM
  viability, T/C: 36.6%
[10]
  viability, T/C: 37.3%
Second compound 3.16 µM, first compound 1 µM
  viability, T/C: 31.1%
Second compound 3.16 µM, first compound 3.16 µM
  viability, T/C: 33.5%
Second compound 3.16 µM, first compound 10 µM
  viability, T/C: 46%
[11]
  viability, T/C: 32.4%
Second compound 10 µM, first compound 0.1 µM
  viability, T/C: 34.5%
[12]
  viability, T/C: 35.7%
Second compound 10 µM, first compound 1 µM
  viability, T/C: 30.5%
Second compound 10 µM, first compound 3.16 µM
  viability, T/C: 25.7%
Second compound 10 µM, first compound 10 µM
  viability, T/C: 38.8%
